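96-well plates; 48 h exposure; 5 concentrations. Endpoints by linear interpolation between flanking doses. Not reached: highest tested concentration assigned. The concentration for 50% growth inhibition is given as GI50.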 Calls of active or inactive are those of the source. Cut-off read from the data, not from the text of the source: active = GI50 up to about 1.1 µM and inactive = higher.
What was measured:
Assay in all cases: inhibition of tumour cell growth, NCI panel, 48 h
SF-295 = test system: SF-295
HCC 2998 = test system: HCC 2998
RPMI-8226 = test system: RPMI-8226
NCI/ADR-RES = test system: NCI/ADR-RES
SNB-19 = test system: SNB-19
OVCAR-8 = test system: OVCAR-8
SK-MEL-5 = test system: SK-MEL-5
SR = test system: SR
SK-OV-3 = test system: SK-OV-3
MOLT-4 = test system: MOLT-4
M14 = test system: M14
IGROV-1 = test system: IGROV-1
SK-MEL-28 = test system: SK-MEL-28
CCRF-CEM = test system: CCRF-CEM
786-0 = test system: 786-0
COLO 205 = test system: COLO 205
U-251 = test system: U-251
A549 = test system: A549
UACC-62 = test system: UACC-62
MCF7 = test system: MCF7

SMILES	GI50 (SF-295)	GI50 (HCC 2998)	GI50 (RPMI-8226)	GI50 (NCI/ADR-RES)	GI50 (SNB-19)	GI50 (OVCAR-8)	GI50 (SK-MEL-5)	GI50 (SR)	GI50 (SK-OV-3)	GI50 (MOLT-4)	GI50 (M14)	GI50 (IGROV-1)	GI50 (SK-MEL-28)	GI50 (CCRF-CEM)	GI50 (786-0)	GI50 (COLO 205)	GI50 (U-251)	GI50 (A549)	GI50 (UACC-62)	GI50 (MCF7)
COc1ccc(NC(=O)CC(=O)NNC(Sc2ccccc2)c2cc(/N=N/c3ccc(Br)cc3)ccc2O)cc1 (stereo not drawn)	> 10 µM (inactive)	> 10 µM (inactive)	> 10 µM (inactive)	> 10 µM (inactive)	> 10 µM (inactive)	> 10 µM (inactive)	> 10 µM (inactive)	8.89 µM (inactive)	> 10 µM (inactive)	3.86 µM (inactive)	> 10 µM (inactive)	> 10 µM (inactive)	> 10 µM (inactive)	3.56 µM (inactive)	6.73 µM (inactive)	> 10 µM (inactive)	> 10 µM (inactive)	> 10 µM (inactive)	> 10 µM (inactive)	> 10 µM (inactive)
COc1cc(/C=C2\N=C(c3ccccc3)N(c3ccc(C(=O)c4ccccc4)cc3N3C(=O)/C(=C/c4ccc(O)c(OC)c4)N=C3c3ccccc3)C2=O)ccc1O	6.43 µM (inactive)	2.91 µM (inactive)	8.51 µM (inactive)	6.76 µM (inactive)	19.5 µM (inactive)	12.7 µM (inactive)	7.76 µM (inactive)	3.85 µM (inactive)	12.1 µM (inactive)	3.3 µM (inactive)	11.3 µM (inactive)	7.35 µM (inactive)	21.2 µM (inactive)	5.45 µM (inactive)	18.9 µM (inactive)	17.9 µM (inactive)	9.79 µM (inactive)	11.4 µM (inactive)	9.62 µM (inactive)	5.85 µM (inactive)
CC1CC(C)C2=NOS3=C2C1=NO3 (stereo not drawn)	> 100 µM (inactive)	> 100 µM (inactive)	> 100 µM (inactive)	> 100 µM (inactive)	> 100 µM (inactive)	> 100 µM (inactive)	30.8 µM (inactive)	> 100 µM (inactive)	> 100 µM (inactive)	89.9 µM (inactive)	> 100 µM (inactive)	58.7 µM (inactive)	> 100 µM (inactive)	> 100 µM (inactive)	> 100 µM (inactive)	72.6 µM (inactive)	> 100 µM (inactive)	> 100 µM (inactive)	79.8 µM (inactive)	82.8 µM (inactive)
CC1(C)CCCCC1/C=C/C(CC(O)(C(F)(F)F)C(F)(F)F)=N\Nc1ccc([N+](=O)[O-])cc1[N+](=O)[O-] (stereo not drawn)	2.42 µM (inactive)	4.55 µM (inactive)	0.33 µM (active)	4.32 µM (inactive)	4.5 µM (inactive)	2.13 µM (inactive)	0.395 µM (active)	0.518 µM (active)	0.979 µM (active)	0.807 µM (active)	4.33 µM (inactive)	0.514 µM (active)	4.23 µM (inactive)	0.662 µM (active)	1.92 µM (inactive)	1.18 µM (inactive)	2.33 µM (inactive)	1.26 µM (inactive)	1.02 µM (active)	0.573 µM (active)
O=[As](O)(O)c1ccc(Cc2ccc([As](=O)(O)O)cc2)cc1	2.78 µM (inactive)	1.91 µM (inactive)	0.284 µM (active)	1.48 µM (inactive)	1.15 µM (inactive)	0.358 µM (active)	0.632 µM (active)	0.269 µM (active)	2.15 µM (inactive)	0.457 µM (active)	1.06 µM (active)	0.692 µM (active)	1.32 µM (inactive)	0.0813 µM (active)	0.356 µM (active)	0.617 µM (active)	0.371 µM (active)	1.81 µM (inactive)	1.28 µM (inactive)	0.284 µM (active)
CC#CC(O)(C(=O)OC1CC(C)N(C)C(C)(C)C1)C1CCCC1 (stereo not drawn)	> 100 µM (inactive)	> 100 µM (inactive)	> 100 µM (inactive)	29 µM (inactive)	> 100 µM (inactive)	> 100 µM (inactive)	> 100 µM (inactive)	> 100 µM (inactive)	> 100 µM (inactive)	> 100 µM (inactive)	> 100 µM (inactive)	> 100 µM (inactive)	> 100 µM (inactive)	> 100 µM (inactive)	> 100 µM (inactive)	> 100 µM (inactive)	> 100 µM (inactive)	> 100 µM (inactive)	> 100 µM (inactive)	> 100 µM (inactive)
c1cc(-c2cscc2-c2ccsc2)cs1	83.4 µM (inactive)	27.4 µM (inactive)	34.9 µM (inactive)	37.7 µM (inactive)			31 µM (inactive)	27.5 µM (inactive)	> 100 µM (inactive)	30.1 µM (inactive)	31.3 µM (inactive)	34.5 µM (inactive)	98.4 µM (inactive)	52.6 µM (inactive)	72.1 µM (inactive)	> 100 µM (inactive)	> 100 µM (inactive)	43.6 µM (inactive)	47.3 µM (inactive)	30.5 µM (inactive)

From ChEMBL document CHEMBL1201862, “PubChem BioAssay data set” (2004)
